Data from patent publication US8946477B2, “Solid forms of an N-(phenylmethyl) propanamide derivative and processes of preparation” (Medichem, S.A., priority 2009, dated 2015).

Assay: Stability studies: storage under standard conditions, then XRD analysis
Format: physicochemical
Conditions: for XRD after storage (polymorphic form): stored at room temperature, air atmosphere

COC[C@@H](NC(C)=O)C(=O)NCc1ccccc1 [lacosamide Form III, (2R)-2-(acetylamino)-3-methoxy-N-(phenylmethyl)propanamide]
polymorphic stability on storage (ambient conditions and air atmosphere for at least 250 days, more typically at least 290 days): substantially no polymorphic interconversion is observed

COC[C@@H](NC(C)=O)C(=O)NCc1ccccc1 [Example 42, (2R)-2-(acetylamino)-3-methoxy-N-(phenylmethyl)propanamide]
XRD after storage (polymorphic form) (normal pressure, storing time 290 days): Form III

COC[C@@H](NC(C)=O)C(=O)NCc1ccccc1 [amorphous lacosamide, (2R)-2-(acetylamino)-3-methoxy-N-(phenylmethyl)propanamide]
stability on storage (ambient conditions and air atmosphere for at least 250 days, more typically at least 300 days): substantially stable | XRD after storage (FIG. 13 vs FIG. 12) (room temperature, normal pressure, air atmosphere for 304 days (Example 63)): retention of amorphous Form

COC[C@@H](NC(C)=O)C(=O)NCc1ccccc1 [Example 41, (2R)-2-(acetylamino)-3-methoxy-N-(phenylmethyl)propanamide]
XRD after storage (polymorphic form) (normal pressure, storing time 295 days): Form III
